Active and inactive are the calls of the source. No cut-off for these calls is given here.
Columns and labels:
Assay type in all cases: functional
[1] = system: Escherichia coli; experiment: Antibacterial activity against Escherichia coli at 50 ug/ml after 24 hrs by agar well diffusion method; settings: for zone of inhibition at 50 µg/mL: read-out: DIZ
[2] = system: Fusarium oxysporum; experiment: Antifungal activity against Fusarium oxysporum at 100 ug/ml after 48 hrs by agar well diffusion method; settings: for zone of inhibition at 100 µg/mL: read-out: DIZ
[3] = system: Fusarium oxysporum; experiment: Antifungal activity against Fusarium oxysporum at 25 ug/ml after 48 hrs by agar well diffusion method
[4] = system: Fusarium verticillioides; experiment: Antifungal activity against Fusarium moniliforme at 100 ug/ml after 48 hrs by agar well diffusion method
[5] = system: Fusarium verticillioides; experiment: Antifungal activity against Fusarium moniliforme at 25 ug/ml after 48 hrs by agar well diffusion method
[6] = system: Staphylococcus aureus; experiment: Antibacterial activity against methicillin resistant Staphylococcus aureus MRSA090 at 25 ug/ml after 24 hrs by agar well diffusion method; settings: for zone of inhibition at 25 µg/mL: MRSA090, 24 h, read-out: DIZ
[7] = system: Staphylococcus aureus; experiment: Antibacterial activity against Staphylococcus aureus at 50 ug/ml after 24 hrs by agar well diffusion method; settings: for zone of inhibition at 50 µg/mL: read-out: DIZ
[8] = system: Fusarium verticillioides; experiment: Antifungal activity against Fusarium moniliforme at 50 ug/ml after 48 hrs by agar well diffusion method
[9] = system: Klebsiella pneumoniae; experiment: Antibacterial activity against Klebsiella pneumoniae at 100 ug/ml after 24 hrs by agar well diffusion method; settings: for zone of inhibition at 100 µg/mL: read-out: DIZ
[10] = system: Staphylococcus aureus; experiment: Antibacterial activity against Staphylococcus aureus at 75 ug/ml after 24 hrs by agar well diffusion method; settings: for zone of inhibition at 75 µg/mL: read-out: DIZ
[11] = system: Klebsiella pneumoniae; experiment: Antibacterial activity against Klebsiella pneumoniae at 50 ug/ml after 24 hrs by agar well diffusion method; settings: for zone of inhibition at 50 µg/mL: read-out: DIZ
[12] = system: Aspergillus niger; experiment: Antifungal activity against Aspergillus niger at 75 ug/ml after 48 hrs by agar well diffusion method
[13] = system: Aspergillus niger; experiment: Antifungal activity against Aspergillus niger at 100 ug/ml after 48 hrs by agar well diffusion method
[14] = system: Bacillus subtilis; experiment: Antibacterial activity against Bacillus subtilis at 75 ug/ml after 24 hrs by agar well diffusion method; settings: for zone of inhibition at 75 µg/mL: read-out: DIZ
[15] = system: Fusarium oxysporum; experiment: Antifungal activity against Fusarium oxysporum at 75 ug/ml after 48 hrs by agar well diffusion method; settings: for zone of inhibition at 75 µg/mL: read-out: DIZ
[16] = system: Escherichia coli; experiment: Antibacterial activity against Escherichia coli at 75 ug/ml after 24 hrs by agar well diffusion method; settings: for zone of inhibition at 75 µg/mL: read-out: DIZ
[17] = system: Bacillus subtilis; experiment: Antibacterial activity against Bacillus subtilis at 25 ug/ml after 24 hrs by agar well diffusion method; settings: for zone of inhibition at 25 µg/mL: read-out: DIZ
[18] = system: Bacillus subtilis; experiment: Antibacterial activity against Bacillus subtilis at 100 ug/ml after 24 hrs by agar well diffusion method; settings: for zone of inhibition at 100 µg/mL: read-out: DIZ
[19] = system: Staphylococcus aureus; experiment: Antibacterial activity against Staphylococcus aureus at 25 ug/ml after 24 hrs by agar well diffusion method; settings: for zone of inhibition at 25 µg/mL: read-out: DIZ
[20] = system: Fusarium oxysporum; experiment: Antifungal activity against Fusarium oxysporum at 50 ug/ml after 48 hrs by agar well diffusion method
[21] = system: Staphylococcus aureus; experiment: Antibacterial activity against methicillin resistant Staphylococcus aureus MRSA090 at 50 ug/ml after 24 hrs by agar well diffusion method; settings: for zone of inhibition at 50 µg/mL: MRSA090, 24 h, read-out: DIZ
[22] = system: Escherichia coli; experiment: Antibacterial activity against Escherichia coli at 100 ug/ml after 24 hrs by agar well diffusion method; settings: for zone of inhibition at 100 µg/mL: read-out: DIZ
[23] = system: Klebsiella pneumoniae; experiment: Antibacterial activity against Klebsiella pneumoniae at 25 ug/ml after 24 hrs by agar well diffusion method; settings: for zone of inhibition at 25 µg/mL: read-out: DIZ
[24] = system: Escherichia coli; experiment: Antibacterial activity against Escherichia coli at 25 ug/ml after 24 hrs by agar well diffusion method; settings: for zone of inhibition at 25 µg/mL: read-out: DIZ
[25] = system: Aspergillus niger; experiment: Antifungal activity against Aspergillus niger at 50 ug/ml after 48 hrs by agar well diffusion method
[26] = system: Staphylococcus aureus; experiment: Antibacterial activity against Staphylococcus aureus at 100 ug/ml after 24 hrs by agar well diffusion method; settings: for zone of inhibition at 100 µg/mL: read-out: DIZ
[27] = system: Fusarium verticillioides; experiment: Antifungal activity against Fusarium moniliforme at 75 ug/ml after 48 hrs by agar well diffusion method
[28] = system: Staphylococcus aureus; experiment: Antibacterial activity against methicillin resistant Staphylococcus aureus MRSA090 at 100 ug/ml after 24 hrs by agar well diffusion method; settings: for zone of inhibition at 100 µg/mL: MRSA090, 24 h, read-out: DIZ
[29] = system: Klebsiella pneumoniae; experiment: Antibacterial activity against Klebsiella pneumoniae at 75 ug/ml after 24 hrs by agar well diffusion method; settings: for zone of inhibition at 75 µg/mL: read-out: DIZ
[30] = system: Aspergillus niger; experiment: Antifungal activity against Aspergillus niger at 25 ug/ml after 48 hrs by agar well diffusion method
[31] = system: Bacillus subtilis; experiment: Antibacterial activity against Bacillus subtilis at 50 ug/ml after 24 hrs by agar well diffusion method; settings: for zone of inhibition at 50 µg/mL: read-out: DIZ
[32] = system: Staphylococcus aureus; experiment: Antibacterial activity against methicillin resistant Staphylococcus aureus MRSA090 at 75 ug/ml after 24 hrs by agar well diffusion method; settings: for zone of inhibition at 75 µg/mL: MRSA090, 24 h, read-out: DIZ

`COc1cc(/C=N/Nc2nc3cccc(C)c3s2)ccc1O` was tested, and the zone of inhibition at 50 µg/mL [1] was 15 mm, the zone of inhibition at 100 µg/mL [2] was 12 mm and the “diameter of the inhibition zone (DIZ)” value [3] was “inactive”. For the same compound, the “diameter of the inhibition zone (DIZ)” value [4] was “inactive”, the “diameter of the inhibition zone (DIZ)” value [5] was “inactive” and the zone of inhibition at 25 µg/mL [6] was 12 mm. For the same compound, the zone of inhibition at 50 µg/mL [7] was 17 mm, the “diameter of the inhibition zone (DIZ)” value [8] was “inactive” and the zone of inhibition at 100 µg/mL [9] was 16 mm. The zone of inhibition at 75 µg/mL [10] was 22 mm, the zone of inhibition at 50 µg/mL [11] was 10 mm and the “diameter of the inhibition zone (DIZ)” value [12] was “inactive”. For the same compound, the “diameter of the inhibition zone (DIZ)” value [13] was “inactive”, the zone of inhibition at 75 µg/mL [14] was 23 mm and the zone of inhibition at 75 µg/mL [15] was 8 mm. For the same compound, the zone of inhibition at 75 µg/mL [16] was 21 mm, the zone of inhibition at 25 µg/mL [17] was 15 mm and the zone of inhibition at 100 µg/mL [18] was 28 mm. For the same compound, the zone of inhibition at 25 µg/mL [19] was 13 mm, the “diameter of the inhibition zone (DIZ)” value [20] was “inactive” and the zone of inhibition at 50 µg/mL [21] was 16 mm. It also gave a zone of inhibition at 100 µg/mL [22] of 27 mm, a zone of inhibition at 25 µg/mL [23] of 4 mm and a zone of inhibition at 25 µg/mL [24] of 10 mm. For the same compound, the “diameter of the inhibition zone (DIZ)” value [25] was “inactive”, the zone of inhibition at 100 µg/mL [26] was 26 mm and the “diameter of the inhibition zone (DIZ)” value [27] was “inactive”. For the same compound, the zone of inhibition at 100 µg/mL [28] was 24 mm, the zone of inhibition at 75 µg/mL [29] was 14 mm and the “diameter of the inhibition zone (DIZ)” value [30] was “inactive”. The zone of inhibition at 50 µg/mL [31] was 19 mm and the zone of inhibition at 75 µg/mL [32] was 19 mm.
`CCCCCC/C=N/Nc1nc2cccc(C)c2s1` was tested, and the “diameter of the inhibition zone (DIZ)” value [1] was “inactive”, the “diameter of the inhibition zone (DIZ)” value [2] was “inactive” and the “diameter of the inhibition zone (DIZ)” value [3] was “inactive”. The “diameter of the inhibition zone (DIZ)” value [4] was “inactive”, the “diameter of the inhibition zone (DIZ)” value [5] was “inactive” and the “diameter of the inhibition zone (DIZ)” value [6] was “inactive”. The “diameter of the inhibition zone (DIZ)” value [7] was “inactive”, the “diameter of the inhibition zone (DIZ)” value [8] was “inactive” and the “diameter of the inhibition zone (DIZ)” value [9] was “inactive”. For the same compound, the “diameter of the inhibition zone (DIZ)” value [10] was “inactive”, the “diameter of the inhibition zone (DIZ)” value [11] was “inactive” and the “diameter of the inhibition zone (DIZ)” value [12] was “inactive”. For the same compound, the “diameter of the inhibition zone (DIZ)” value [13] was “inactive”, the “diameter of the inhibition zone (DIZ)” value [14] was “inactive” and the “diameter of the inhibition zone (DIZ)” value [15] was “inactive”. For the same compound, the “diameter of the inhibition zone (DIZ)” value [16] was “inactive”, the “diameter of the inhibition zone (DIZ)” value [17] was “inactive” and the “diameter of the inhibition zone (DIZ)” value [18] was “inactive”. The “diameter of the inhibition zone (DIZ)” value [19] was “inactive”, the “diameter of the inhibition zone (DIZ)” value [20] was “inactive” and the “diameter of the inhibition zone (DIZ)” value [21] was “inactive”. For the same compound, the “diameter of the inhibition zone (DIZ)” value [22] was “inactive”, the “diameter of the inhibition zone (DIZ)” value [23] was “inactive” and the “diameter of the inhibition zone (DIZ)” value [24] was “inactive”. For the same compound, the “diameter of the inhibition zone (DIZ)” value [25] was “inactive”, the “diameter of the inhibition zone (DIZ)” value [26] was “inactive” and the “diameter of the inhibition zone (DIZ)” value [27] was “inactive”. The “diameter of the inhibition zone (DIZ)” value [28] was “inactive”, the “diameter of the inhibition zone (DIZ)” value [29] was “inactive” and the “diameter of the inhibition zone (DIZ)” value [30] was “inactive”. For the same compound, the “diameter of the inhibition zone (DIZ)” value [31] was “inactive” and the “diameter of the inhibition zone (DIZ)” value [32] was “inactive”.
Work on `Cc1cccc2nc(N/N=C/c3ccc(F)cc3)sc12` yielded a zone of inhibition at 50 µg/mL [1] of 9 mm, a zone of inhibition at 100 µg/mL [2] of 21 mm and a zone of inhibition at 25 µg/mL ([3]; read-out: DIZ) of 10 mm. For the same compound, the zone of inhibition at 100 µg/mL ([4]; read-out: DIZ) was 30 mm, the zone of inhibition at 25 µg/mL ([5]; read-out: DIZ) was 14 mm and the zone of inhibition at 25 µg/mL [6] was 8 mm. For the same compound, the zone of inhibition at 50 µg/mL [7] was 12 mm, the zone of inhibition at 50 µg/mL ([8]; read-out: DIZ) was 18 mm and the zone of inhibition at 100 µg/mL [9] was 19 mm. It also gave a zone of inhibition at 75 µg/mL [10] of 16 mm, a zone of inhibition at 50 µg/mL [11] of 11 mm and a zone of inhibition at 75 µg/mL ([12]; read-out: DIZ) of 18 mm. For the same compound, the zone of inhibition at 100 µg/mL ([13]; read-out: DIZ) was 22 mm, the zone of inhibition at 75 µg/mL [14] was 12 mm and the zone of inhibition at 75 µg/mL [15] was 18 mm. It also gave a zone of inhibition at 75 µg/mL [16] of 14 mm, a zone of inhibition at 25 µg/mL [17] of 6 mm and a zone of inhibition at 100 µg/mL [18] of 14 mm. For the same compound, the zone of inhibition at 25 µg/mL [19] was 9 mm, the zone of inhibition at 50 µg/mL ([20]; read-out: DIZ) was 13 mm and the zone of inhibition at 50 µg/mL [21] was 12 mm. For the same compound, the zone of inhibition at 100 µg/mL [22] was 17 mm, the zone of inhibition at 25 µg/mL [23] was 6 mm and the zone of inhibition at 25 µg/mL [24] was 5 mm. For the same compound, the zone of inhibition at 50 µg/mL ([25]; read-out: DIZ) was 13 mm, the zone of inhibition at 100 µg/mL [26] was 18 mm and the zone of inhibition at 75 µg/mL ([27]; read-out: DIZ) was 21 mm. For the same compound, the zone of inhibition at 100 µg/mL [28] was 19 mm, the zone of inhibition at 75 µg/mL [29] was 16 mm and the zone of inhibition at 25 µg/mL ([30]; read-out: DIZ) was 10 mm. For the same compound, the zone of inhibition at 50 µg/mL [31] was 9 mm and the zone of inhibition at 75 µg/mL [32] was 16 mm.

— ChEMBL document CHEMBL4020788, “Synthesis, SAR and molecular docking studies of benzo[d]thiazole-hydrazones as potential antibacterial and antifungal agents” (2017)
